{
  "source": "patent US3940248A",
  "about": "“Method for inhibiting corrosion of metal” (Otsuka Kagaku Yakuhin Kabushiki Kaisha, priority 1972, dated 1976)",
  "key": {"in vivo": {"assay": "in vivo", "settings": "rat, po", "description": "The LD50 test was conducted using male Wistar rats after 24 hours' fasting weighing 150 g, each 10 rats as a group."}, "male Wistar rats": {"tested_on": "male Wistar rats", "settings": "sodium nitrite, as determined in rats; cited from earlier work"}},
  "data": [
    {"smiles": "Cc1cc(O)c2nncn2n1", "values": [
      {"measurement": "LD50", "setting": "in vivo", "value": "~3750", "unit": "mg/kg"}
    ]},
    {"smiles": "O=NO", "note": "[Sodium nitrite]", "values": [
      {"measurement": "LD50", "setting": "male Wistar rats", "value": 85, "unit": "mg/kg"}
    ]}
  ]
}
